Laboratory results taken from ChEMBL document CHEMBL1201862, “PubChem BioAssay data set” (2004).
Calls of active or inactive are those of the source.

Experiments:
Streptokinase A = target: T1, Streptokinase A (Streptococcus pyogenes serotype M1, UniProt P10520); assay: viability-normalized secreted streptokinase activity reduction – plasminogen activation absorbance, OD405, dose response (AID 1914); type: functional, Streptococcus pyogenes M1 GAS;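 also: secreted streptokinase activity via plasminogen activation per viability signal from cell pellet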
T1 sequence (P10520 whole entry): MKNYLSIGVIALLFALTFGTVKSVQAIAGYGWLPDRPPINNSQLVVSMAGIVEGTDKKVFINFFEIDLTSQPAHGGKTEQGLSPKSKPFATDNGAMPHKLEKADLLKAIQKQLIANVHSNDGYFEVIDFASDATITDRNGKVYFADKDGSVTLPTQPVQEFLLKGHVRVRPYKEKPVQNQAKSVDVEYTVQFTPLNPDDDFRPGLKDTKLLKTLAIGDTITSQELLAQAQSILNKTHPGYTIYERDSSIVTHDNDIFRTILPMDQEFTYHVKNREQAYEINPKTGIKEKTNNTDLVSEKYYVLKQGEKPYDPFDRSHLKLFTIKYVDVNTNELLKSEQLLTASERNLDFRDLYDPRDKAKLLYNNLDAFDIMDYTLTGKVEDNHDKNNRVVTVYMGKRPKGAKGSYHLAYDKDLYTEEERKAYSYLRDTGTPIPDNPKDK

Large T antigen = Large T antigen (Simian virus 40, UniProt P03070); type: functional, Betapolyomavirus macacae;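 also: Confirmatory-stage PubChem screen for compounds that inhibit SV40 T antigen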
Large T antigen, sequence (P03070 whole entry): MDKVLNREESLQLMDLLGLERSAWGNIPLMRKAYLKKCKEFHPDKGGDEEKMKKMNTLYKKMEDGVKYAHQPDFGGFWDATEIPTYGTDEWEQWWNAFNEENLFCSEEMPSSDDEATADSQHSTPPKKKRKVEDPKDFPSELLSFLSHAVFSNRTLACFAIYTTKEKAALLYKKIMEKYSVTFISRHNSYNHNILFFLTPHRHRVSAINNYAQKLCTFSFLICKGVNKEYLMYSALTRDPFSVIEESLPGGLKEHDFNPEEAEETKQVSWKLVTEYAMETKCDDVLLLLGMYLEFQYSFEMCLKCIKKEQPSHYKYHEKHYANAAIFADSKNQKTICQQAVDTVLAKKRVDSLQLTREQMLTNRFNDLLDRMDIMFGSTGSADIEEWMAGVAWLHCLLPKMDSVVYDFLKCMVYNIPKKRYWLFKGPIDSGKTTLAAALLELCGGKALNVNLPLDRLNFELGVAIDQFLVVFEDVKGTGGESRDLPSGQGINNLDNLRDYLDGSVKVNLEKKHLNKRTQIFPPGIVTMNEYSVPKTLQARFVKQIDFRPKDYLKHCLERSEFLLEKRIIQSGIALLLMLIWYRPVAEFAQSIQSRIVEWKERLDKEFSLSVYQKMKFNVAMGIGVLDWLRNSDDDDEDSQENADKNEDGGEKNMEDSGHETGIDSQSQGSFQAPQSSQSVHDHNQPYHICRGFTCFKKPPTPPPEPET

[1] = target: T2, Histone-lysine N-methyltransferase NSD2 (Homo sapiens, UniProt O96028); type: biochemical
T2 sequence (O96028 whole entry): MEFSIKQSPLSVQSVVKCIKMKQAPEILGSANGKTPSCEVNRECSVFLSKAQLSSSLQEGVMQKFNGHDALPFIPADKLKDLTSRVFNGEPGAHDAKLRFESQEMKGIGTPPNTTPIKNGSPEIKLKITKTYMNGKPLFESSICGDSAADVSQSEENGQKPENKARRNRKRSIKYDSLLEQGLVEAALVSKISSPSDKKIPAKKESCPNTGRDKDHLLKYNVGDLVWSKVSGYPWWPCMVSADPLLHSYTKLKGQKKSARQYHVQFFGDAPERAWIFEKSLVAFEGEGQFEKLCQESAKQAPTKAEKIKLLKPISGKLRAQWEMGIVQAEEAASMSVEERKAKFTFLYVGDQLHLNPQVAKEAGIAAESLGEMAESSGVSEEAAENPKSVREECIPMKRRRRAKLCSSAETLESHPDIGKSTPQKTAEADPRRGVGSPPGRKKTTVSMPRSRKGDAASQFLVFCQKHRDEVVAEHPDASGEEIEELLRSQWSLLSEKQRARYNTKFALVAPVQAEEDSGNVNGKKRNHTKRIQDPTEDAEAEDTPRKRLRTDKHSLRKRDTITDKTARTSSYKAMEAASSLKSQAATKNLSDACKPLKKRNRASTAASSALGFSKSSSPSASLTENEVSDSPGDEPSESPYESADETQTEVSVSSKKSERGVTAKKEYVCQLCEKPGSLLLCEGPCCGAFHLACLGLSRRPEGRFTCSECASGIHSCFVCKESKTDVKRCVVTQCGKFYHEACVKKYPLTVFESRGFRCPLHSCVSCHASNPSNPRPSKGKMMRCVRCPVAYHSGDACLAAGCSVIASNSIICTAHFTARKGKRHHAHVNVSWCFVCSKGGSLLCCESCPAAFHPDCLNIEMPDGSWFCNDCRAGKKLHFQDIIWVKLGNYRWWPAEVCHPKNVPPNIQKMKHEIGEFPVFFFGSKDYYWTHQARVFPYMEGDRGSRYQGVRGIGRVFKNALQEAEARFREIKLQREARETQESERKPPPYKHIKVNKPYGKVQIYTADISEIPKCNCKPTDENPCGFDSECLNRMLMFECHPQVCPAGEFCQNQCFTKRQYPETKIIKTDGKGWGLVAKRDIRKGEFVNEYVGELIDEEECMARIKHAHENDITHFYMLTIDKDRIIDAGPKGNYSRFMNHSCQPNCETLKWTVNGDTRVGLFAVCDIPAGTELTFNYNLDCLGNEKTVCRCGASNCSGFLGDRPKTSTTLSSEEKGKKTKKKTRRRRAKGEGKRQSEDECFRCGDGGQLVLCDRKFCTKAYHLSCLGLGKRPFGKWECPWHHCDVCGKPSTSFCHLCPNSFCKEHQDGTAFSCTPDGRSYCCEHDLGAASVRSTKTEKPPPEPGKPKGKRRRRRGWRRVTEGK

Fibrinogen beta chain [2] = target: T3, Fibrinogen beta chain (Homo sapiens, UniProt P02675); assay: Fluorescence polarization-based biochemical high throughput dose response assay to identify inhibitors that disrupt the binding of a cyclic peptide (Tn7) to the fibrin proteolytic product D-Dimer and fragment E complex [DD(E )].
T3 sequence (P02675 whole entry, the tested form may be a part): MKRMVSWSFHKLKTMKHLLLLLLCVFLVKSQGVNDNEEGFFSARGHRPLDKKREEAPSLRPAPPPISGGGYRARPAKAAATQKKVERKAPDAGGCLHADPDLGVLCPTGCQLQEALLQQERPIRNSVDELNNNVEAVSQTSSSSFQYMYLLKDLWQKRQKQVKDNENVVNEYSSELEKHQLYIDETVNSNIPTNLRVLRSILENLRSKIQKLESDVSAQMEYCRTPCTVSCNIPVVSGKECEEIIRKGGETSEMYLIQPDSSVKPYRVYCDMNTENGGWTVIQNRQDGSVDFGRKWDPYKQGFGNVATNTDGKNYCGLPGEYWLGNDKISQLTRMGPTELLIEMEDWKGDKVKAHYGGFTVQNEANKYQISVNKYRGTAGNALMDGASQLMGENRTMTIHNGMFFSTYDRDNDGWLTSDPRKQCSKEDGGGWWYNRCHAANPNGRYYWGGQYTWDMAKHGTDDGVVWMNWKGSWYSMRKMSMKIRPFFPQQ

[3] = tested on: Streptococcus sp. 'group A'; assay: Streptococcus pyogenes SK(-)GAS viability under kanamycin – luminescence, BacTiterGlo, confirmation, counter-screen for streptokinase expression inhibitor project, dose response (AID 1900); type: functional, organism-based
[4] = target: T4, Tyrosyl-DNA phosphodiesterase 2 (Homo sapiens, UniProt O95551); assay: potency against TDP2 phosphodiesterase activity – biochemical, epi absorbance, IC50, dose response (AID 743297)
T4 sequence (O95551 whole entry): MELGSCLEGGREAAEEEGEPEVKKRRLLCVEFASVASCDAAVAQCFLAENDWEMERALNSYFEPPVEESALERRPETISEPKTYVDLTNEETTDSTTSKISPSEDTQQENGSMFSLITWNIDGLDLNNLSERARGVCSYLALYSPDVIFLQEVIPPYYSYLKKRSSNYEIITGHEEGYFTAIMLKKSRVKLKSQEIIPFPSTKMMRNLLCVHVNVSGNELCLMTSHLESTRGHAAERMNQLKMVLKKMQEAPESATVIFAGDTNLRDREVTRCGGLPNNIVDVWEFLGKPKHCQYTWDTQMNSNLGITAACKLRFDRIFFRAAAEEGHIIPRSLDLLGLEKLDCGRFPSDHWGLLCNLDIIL

Streptococcus = assay: GAS UMAA2166 growth inhibition – luminescence, BacTiterGlo, counter-screen for streptokinase expression inhibitor project, dose response (AID 1915); type: functional, organism-based;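 also: potency for reduction of bacterial viability or growth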
Fibrinogen beta chain [5] = target: T3, Fibrinogen beta chain; assay: Fluorescence polarization-based biochemical high throughput dose response assay to identify inhibitors that disrupt the binding of a cyclic peptide (Tn6) to the fibrin proteolytic product D-Dimer and fragment E complex [DD(E )].
[6] = target: E3 ubiquitin-protein ligase XIAP (Homo sapiens, UniProt P98170); assay: Counter Screen using XIAP-Bir3 for Chemical Antagonists of Bir1/2 domains of IAP-family anti-apoptotic proteins. [Related pubchem assays (depositor defined):AID1018, AID1449, AID1514, AID1638, AID1749, AID1750, AID488957, AID488963]
E3 ubiquitin-protein ligase XIAP, sequence (P98170 whole entry): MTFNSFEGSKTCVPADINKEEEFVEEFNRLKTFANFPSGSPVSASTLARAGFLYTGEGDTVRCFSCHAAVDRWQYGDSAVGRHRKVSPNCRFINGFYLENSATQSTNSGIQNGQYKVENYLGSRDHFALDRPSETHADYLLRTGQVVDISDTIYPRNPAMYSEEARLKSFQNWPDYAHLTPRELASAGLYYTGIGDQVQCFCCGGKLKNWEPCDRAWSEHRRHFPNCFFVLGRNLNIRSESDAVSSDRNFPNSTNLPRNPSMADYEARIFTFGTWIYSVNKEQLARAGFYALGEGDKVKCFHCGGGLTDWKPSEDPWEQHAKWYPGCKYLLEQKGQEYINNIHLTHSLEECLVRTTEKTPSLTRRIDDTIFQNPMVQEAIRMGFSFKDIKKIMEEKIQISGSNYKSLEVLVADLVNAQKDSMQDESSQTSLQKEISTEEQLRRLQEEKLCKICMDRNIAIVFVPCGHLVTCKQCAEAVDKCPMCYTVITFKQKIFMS

[7] = toxicity to human hepatoma HepG2 cells – cell-based, cherry-picked samples, cytotoxicity control, dose response (AID 1159577); type: functional
[8] = P. falciparum Dd2 growth inhibitors, dose response, SYBR Green, cherry-picked samples (AID 1159567); type: functional, cell-based
[9] = CellTiter-Glo luminescence survival assay, SW480 colon tumor line, concentration-response curve, half-maximal inhibitory concentration (AID 1117338); type: functional
[10] = cytotoxicity toward HCT116 cells – cell-based, CellTiter-Glo luminescence, IC50, dose response (AID 1117332); type: functional; details: HCT-116
[11] = HCT116 cell viability decrease, GSK3B pretreatment – CellTiter-Glo, IC50, dose response (AID 1117339); type: functional; details: HCT-116
[12] = cytotoxicity toward Colo320 cells – cell-based, CellTiter-Glo luminescence, IC50, dose response (AID 1117334); type: functional; details: COLO 320
[13] = SNU-C1 cell viability reduction, dose response, CellTiter-Glo luminescence (AID 1117323); type: functional, cell-based
[14] = cytotoxicity toward HT-29 cells – cell-based, CellTiter-Glo luminescence, IC50, dose response (AID 1117330); type: functional
[15] = RKO cell viability reduction, dose response, CellTiter-Glo luminescence (AID 1117322); type: functional
[16] = Reduced DLD-1 viability, concentration-response, CellTiter-Glo luminescence (AID 1117352); type: functional
[17] = BioA aminotransferase inhibition, coupled fluorescent readout – biochemical, coupled fluorescence displacement, 20-point, dry powder, dose response (AID 743357); type: functional
[18] = growth inhibition of PfATP4-mutant resistant parasites – NITD609-resistant line, SYBR Green, dry powder, dose response (AID 1159571); type: functional, cell-based;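 also: parasites synchronized at ring stage by sorbitol before testing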
[19] = Dd2 malaria parasite growth inhibition potency – SYBR Green, dry powder samples, dose response (AID 1159566); type: functional, cell-based;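 also: potency for growth inhibition with lower SYBR green DNA signal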
[20] = growth inhibition of yeast DHODH-expressing 3D7 parasites – SYBR Green, dry powder samples, dose response (AID 1159570); type: functional, cell-based;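 also: parasite growth measured after 72 hours of compound exposure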

## O=C(O)CCCNc1cc(N2CCN(C(=O)c3ccco3)CC2)c2noc3c2c1C(=O)c1ccccc1-3
Streptokinase A
  EC50: > 150 µM (not active)
Large T antigen
  IC50: > 100 µM (active)
[1]
  AC50: 14.8 µM (active)
Fibrinogen beta chain [2]
  IC50: > 83.3 µM (inactive)
[3]
  EC50: 5.52 µM (active)
[4]
  IC50: > 128 µM (inactive)
Streptococcus
  EC50: 31.8 µM (active)
Fibrinogen beta chain [5]
  IC50: 4.96 µM (active)
[6]
  IC50: > 20 µM (inactive)

## Cc1cccc(S(=O)(=O)N2CCCCN3[C@@H](CO)[C@@H](c4ccc(C#CC(C)C)cc4)[C@@H]3C2)c1
[7]
  AC50: 15.1 µM (active)
[8]
  AC50: 1.18 µM (active)

## CN1CCC(=C2c3ccccc3C=Cc3ccccc32)CC1 [CYPROHEPTADINE]
[9]
  IC50: 5.92 µM (inactive)
[10]
  IC50: > 20 µM (inactive)
[11]
  IC50: > 20 µM (inactive)
[12]
  IC50: > 20 µM (inactive)
[13]
  IC50: 10.8 µM (inactive)
[14]
  IC50: > 20 µM (inactive)
[15]
  IC50: 11.3 µM (inactive)
[16]
  IC50: > 20 µM (inactive)

## COC(=O)c1ccc(N2CCN(C(=O)c3ccc4c(c3)OCO4)CC2)cc1
[17]
  AC50: 12.4 µM (active)

## CCC(=O)N1CCC2(CC1)CN(S(=O)(=O)c1ccccc1)[C@@H](CO)c1[nH]c3cc(OC)ccc3c12
[18]
  AC50: 0.961 µM (active)
[19]
  AC50: 1.47 µM (active)
[8]
  AC50: 2.04 µM (active)
[20]
  AC50: 1.31 µM (active)
